The source of these data is patent US20080045451A1, “Novel thymidylate synthase mutants” (priority 2000, published 2008).

The test system of one assay is 3T3 fibroblasts. Nature of the assay: Cytotoxicity of 5-FU in 3T3 fibroblasts with or without PTD-4-TSD254E fusion protein (Hoechst 33342). The settings on record: 24 h. Type of assay: cell-based. Here is the method: 3T3 fibroblasts cells (available by the American Type […] Collection (ATCC, Rockville, Md., USA) were seeded with a cell density of 1×10^4 cells per well into 96-well-cell culture plates. DMEM medium with 10% fetal calve serum is used as cell culture medium, and cells are cultured in a CO2-incubator at 37° C. and 5% CO2. The cell culture medium is aspirated after 24 hours and substituted by 200 μL/well of the test assay and cells are incubated for another 24 hours. Subsequently the portion of viable cells was determined as described below. The test assays are composed as follows:
Controls without 5-FU and without PTD-4-TSD2S4E-fusion protein: 200 μL/well of DMEM with 10%.fetal calve serum […]
After completion of the 24-hour treatment of the cells in the control- or test assaysas described above, the medium is removed from the 96-well-plates and substituted by 200 μL/well DMEM medium with 10% fetal calve serum and 10 μg/mL of the DNA-binding fluorescent dye H33342 (Engelmann et al., 2001). […] Subsequently, 100 μL well PBS is added and the fluorescence is quantified at an […]. The intensity of the fluorescence signal is a measure for the number of viable cells. […] The fluorescence intensity of these samples is set as 100%. […] The ED50-values were calculated using the nonlinear regression. […]

For assay [1], the system named is primary human gingival fibroblasts. Nature of the assay: Cytotoxicity of 5-FU in primary human gingival fibroblasts with or without PTD-4-TSD254E fusion protein (Hoechst 33342). The assay is classed as cell-based. To be noted: 10 mM 5-FU, 24 h, without PTD-4-TSD254E, FIG. 7. The protocol:
After completion of the 24-hour treatment of the cells in the control- or test assaysas described above, the medium is removed from the 96-well-plates and substituted by 200 μL/well DMEM medium with 10% fetal calve serum and 10 μg/mL of the DNA-binding fluorescent dye H33342 (Engelmann et al., 2001). The plates are kept at 37° C. for 30 minutes and are then washed twice with each 100 μL/well phosphaste-buffered sodium chloride solution (PBS, “phosphate buffered saline”). Subsequently, 100 μL well PBS is added and the fluorescence is quantified at an […]. The intensity of the fluorescence signal is a measure for the number of viable cells. The fluorescence background signal (dye incubation without cells) is subtracted from the raw data of the fluorescence readings and the calculation of the %-share of viable cells is made related to the fluorescence reading of cells, which were not treated with 5-FU. The fluorescence intensity of these samples is set as 100%. The dosage of 5-FU that kills 50% of the cells (ED50), is determined using the same method. […] The ED50-values were calculated using the nonlinear regression. This method to determine the ED50 has been already described (Engelmann et al., 2001). […]

The conditions of assay [2]: Ho et al., 2001; cited from earlier work.

In the case of `O=c1[nH]cc(F)c(=O)[nH]1` [Mutant 5-FU, 5-fluorouracil], the survival of cells is given as 50% with 3T3 fibroblasts (2.5 μM 5-FU, absence of PTD-4-TSD254E, FIG. 6) and 70% in assay [1]. Besides, the EC50 in the assay on 3T3 fibroblasts (3T3-fibroblast cell line, read-out: ED50 (dosage of 5-FU that kills 50% of the cells)) was 2500 nM.

For “PTD-4: optimized TAT sequence YARAAARQARA (SEQ ID NO: 6), protein transduction domain 4 (synthetic TAT sequence optimized by random mutagenisis)”, in assay [2], the “transduction activity in comparison to the original TAT sequence” value is 33 fold.
